Key:
benign PNT2-C2 cells = assay: Patch clamp, citrate-induced current in PNT2-C2 cells; assay type: cell-based, human; conditions: 10 mM gluconate, 10 mM citrate
Method: (§1) FIG. 14. Patch clamp recordings were performed on PC-3M (A) and PNT2-C2 (B) cells. […] Importantly, reduction in citrate-induced current in the presence of gluconate was irreversible. […] The effect of reduced citrate-induced current was greater in the case of PC-3M cells versus PNT2-C2 cells.
(§2) 2. Patch clamp on human prostate cancer PC-3M and benign PNT2-C2 cells (FIG. 14)
(§3) Extracellular application of citrate induced inward current in both cell lines as described earlier. […] As in the case of oocytes, gluconate inhibition of citrate-induced current was irreversible. Repeated application of citrate on PC-3M cells has been previously shown not to cause any reduction in citrate current (Mycielska et al., 2005).

pmCiC mRNA = assay: RealTime PCR, pmCiC mRNA expression in PC-3M cells; assay type: cell-based, human; conditions: media with citrate plus 5 mM gluconate vs citrate only
Method: (§4) FIG. 15. Metastatic human prostate cancer PC-3M cells were grown with extracellular citrate in the presence or absence of gluconate (5 mM). RealTime PCR was performed to assess changes to the mRNA expression level of pmCiC and mCiC.
(§5) 3. Effects of extracellular gluconate on pmCiC mRNA expression (FIG. 15)
(§6) We have studied the effect of gluconate in the extracellular media supplemented with citrate on the expression changes of pmCiC and mCiC as compared to the control conditions where the cells were incubated with extracellular citrate only. […] On the other hand, there was a significant mCiC mRNA increase, which would indicate increased mitochondrial activity to maintain intracellular citrate level.

pmCiC = target: T1, pmCiC (Homo sapiens, UniProt P53007); assay: pmCiC expressed in oocytes, two electrodes voltage clamp, citrate-induced current; assay type: cell-based
T1 construct: expressed in transfected cells
T1 sequence (P53007 with tags, fused parts or gaps limits assumed): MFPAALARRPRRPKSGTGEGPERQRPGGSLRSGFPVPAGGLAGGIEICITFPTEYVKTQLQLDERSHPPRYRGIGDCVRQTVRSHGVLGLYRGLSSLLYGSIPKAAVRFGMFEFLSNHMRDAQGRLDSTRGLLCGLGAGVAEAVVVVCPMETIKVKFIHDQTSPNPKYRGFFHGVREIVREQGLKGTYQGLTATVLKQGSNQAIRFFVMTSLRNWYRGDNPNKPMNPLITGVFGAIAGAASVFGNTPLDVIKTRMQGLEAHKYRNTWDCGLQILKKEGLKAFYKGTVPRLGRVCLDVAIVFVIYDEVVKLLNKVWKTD
Method: FIG. 13. Oocytes were injected with either pmCiC cDNA (A) or water (B).
1. pmCiC expression in oocytes—two electrodes voltage clamp (FIG. 13)
We have expressed pmCiC in oocytes and induced citrate inward current by introducing citrate into extracellular media. […] This reduction was irreversible, as subsequent application of citrate after gluconate removal from the media was not able to restore the primary response.

mCiC mRNA = assay: RealTime PCR, mCiC mRNA expression in PC-3M cells; assay type: cell-based, human; conditions: media with citrate plus 5 mM gluconate vs citrate only
Method: as §4, §5, §6

[1] = test system: human prostate cancer PC-3M cells; assay: Survival of PC-3M cells under stress conditions, MTT assay; assay type: cell-based; conditions: serum-free media with 0.5 g/L glucose
Method: FIG. 16. Metastatic human prostate cancer PC-3M cells were grown in RPMI media supplemented with 0.5 g/L glucose and glutamine. Their survival rate was measured after 48 h and 72 h using an MTT assay. The control depicts survival of the cells with no extracellular citrate or glutamate.
4. Effect of gluconate on the survival of human prostate cancer PC-3M cells (16)

[2] = test system: human prostate cancer PC-3M cells; assay: Patch clamp, citrate-induced current in PC-3M cells; assay type: cell-based
Method: as §1, §2, §3

normal PNT2-C2 cells = assay: ROS synthesis by flow cytometry in PNT2-C2 cells; assay type: cell-based, human; conditions: extracellular citrate
Method: FIG. 2. Impact of extracellular citrate on Krebs cycle activity. PC-3M cells were incubated for 72 h with 25 mM [U-13C]glucose with or without the addition of 200 μM unlabelled citrate. (A) Differences in the ratio of uniform ^13C incorporation into fully labelled Krebs cycle intermediates. (*P<0.05, ***P<0.005; n=5). (B) Differences in ROS synthesis determined by flow cytometry for PC-3M (left) and PNT2-C2 (right) cells. Cells were incubated in media containing FCS, dialysed FCS+200 μM citrate, or dialysed serum only. Shown are geometric means±SD. (*P<0.05; n=6-9). […] Changes in mCiC in mitochondrial protein derived from PNT2-C2 cells was also determined under normoxic conditions (right). […]
Changes in Krebs cycle activity were also determined by measuring the absolute amounts determined as a normalized response of the studied substrates (unlabelled and total ^13C depicting all substrates with any number of labelled carbons) in the presence or absence of unlabelled extracellular citrate (FIG. 7). […] Using flow cytometry the inventors also determined that ROS levels in PC-3M cells grown with extracellular citrate were decreases by about 20%, compared to cells grown in citrate-depleted dialysed serum (FIG. 2B); use of normal non-dialysed serum also reduces ROS levels. […]
Studies were performed as before^28. […] ROS production was detected with dihydrorhodamine 123 (Molecular Probes, Darmstadt, Germany). […]

PC-3M cells [3] = assay: Flow cytometry-based cell division (cell cycle) study; set-up: species or system human; conditions: PC-3M cells cultured with supplemented citrate, normoxic
Method: (§7) FIG. 3. Glycolytic activity and amino acid release. (A) Amount of glucose consumed and lactate released by PC-3M cells grown for 24 h with or without 200 μM citrate. (**P<0.01; n=5). (B) Concentrations of glycine, alanine and proline in the supernatants of PC-3M cells grown for 72 h with or without 200 μM citrate. (*P<0.05, **P<0.01; n=5). (C) Influence of extracellular citrate on the intracellular ratio of 13C-labeled to unlabelled free amino acids. PC-3M cells were incubated for 72h in media supplemented with [U-^13C]glucose with or without 200 μM unlabelled citrate, the ratio of ^13C incorporation into amino acids is shown. (*P<0.05, ***P<0.005; n=5). (D) Cell division in the presence or absence of extracellular citrate under normoxic conditions determined by flow cytometry. (*P<0.05, **P<0.01; n=6).
An increase in the synthesis of amino acids in the presence of extracellular citrate prompted cell division testing. […] Therefore, metabolic changes induced by extracellular citrate affect metabolism to an extent that impacts cellular processes such as cell division.
Studies were performed as before^28. […] ROS production was detected with dihydrorhodamine 123 (Molecular Probes, Darmstadt, Germany). […] At least 10,000 live cells were measured per sample. Dead cells were detected using the Aqua Live/Dead cell kit (Molecular Probes).

PC-3M cells [4] = assay: Glucose uptake and lactate release in media of PC-3M cells; assay type: cell-based, human; conditions: 200 μM citrate, 24 h
Method: as §7
To assess glycolysis the inventors measured (unlabelled) glucose uptake and lactate release in the media from PC-3M cells incubated±200 μM citrate for 24 h. […] This effect is most likely related to increased conversion of pyruvate to lactate because of decreased mitochondrial citrate synthesis.
Metabolites were extracted with 80% methanol and measured by HPLC-ESI-MS/MS on an AB SCI EX (Framingham, MA, USA) Q TRAP™ 4000 system. […] Lactate and glucose in the media were measured as previously described^27.

Row | SMILES | citrate-induced current in the presence of gluconate (benign PNT2-C2 cells) | pmCiC mRNA expression (pmCiC mRNA) | reversibility of the reduction of citrate-induced current (pmCiC; citrate applied again after gluconate removal from the media) | citrate-induced current in the presence of gluconate (pmCiC; oocytes injected with pmCiC cDNA, gluconate applied extracellularly) | mCiC mRNA expression (mCiC mRNA) | survival of cells in the presence of extracellular citrate and gluconate ([1]; 200 μM citrate, 48 h and 72 h) | cell survival with gluconate in the absence of extracellular citrate ([1]; no citrate) | reversibility of gluconate inhibition of citrate-induced current ([2]; PC-3M cells, 10 mM gluconate) | citrate-induced current in the presence of gluconate ([2]; PC-3M cells, 10 mM gluconate, 10 mM citrate) | effect of repeated application of gluconate on citrate-induced current ([2]; repeated application) | ROS synthesis (normal PNT2-C2 cells) | survival of cancer cells under stress conditions with extracellular citrate ([1]; 200 μM citrate) | cell cycle phase distribution (PC-3M cells [3]) | lactate production (absolute amount of lactate per media volume) (PC-3M cells [4])
1 | O=C(O)[C@H](O)[C@@H](O)[C@H](O)[C@H](O)CO [gluconate] | decreased | significantly increased | irreversible | significantly decreased | significantly increased | protective effect of extracellular citrate is abolished | no effect on cell survival | irreversible | decreased | further citrate-induced current reduction |  |  |  | 
2 | O=C(O)CC(O)(CC(=O)O)C(=O)O [citrate] |  |  |  |  |  |  |  |  |  |  | did not affect ROS synthesis | increases survival | sharp increase in the G2/M phase | unaffected
